Patent US20260297070A1, “CYCLIC [COMPOUND LEFT OUT] WRN INHIBITORS” (Nimbus Wadjet, Inc., priority 2023, published 2026)

The compounds below were run against T1, human Werner helicase (WRN-BV08, Uniprot Q14191, amino acids 517-1235 with L1074F point mutation) (Homo sapiens, UniProt Q14191, L1074F) (assay: WRN (BV08) ADP-Glo Assay). Details: 0.15 nM WRN, 5 μM ATP, 0.1 nM DNA duplex, 15 min preincubation, 60 min at 25° C., pH 7.5, 1% DMSO; read-out: ADP-Glo_hWRN_IC50.
T1 construct: Uniprot Q14191, amino acids 517-1235 with L1074F point mutation; TEV-cleavable 8×His (C, cleaved yes); made in house; host or cells: Sf9 insect cells (baculovirus)
Format: biochemical
Method in brief: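 0.15 nM WRN (aa 517-1235, L1074F, Sf9-expressed, tag cleaved) preincubated 15 min at 25 °C with compound, then 5 μM ATP and 0.1 nM DNA duplex added for 60 min. Buffer: 20 mM Bicine pH 7.5, 1 mM MgCl2, 10 mM KCl, 1 mM TCEP; 1% DMSO. ADP-Glo luminescence; IC50 by 4-parameter fit.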

T1 sequence (Q14191 with tags, fused parts or gaps L1074F limits assumed): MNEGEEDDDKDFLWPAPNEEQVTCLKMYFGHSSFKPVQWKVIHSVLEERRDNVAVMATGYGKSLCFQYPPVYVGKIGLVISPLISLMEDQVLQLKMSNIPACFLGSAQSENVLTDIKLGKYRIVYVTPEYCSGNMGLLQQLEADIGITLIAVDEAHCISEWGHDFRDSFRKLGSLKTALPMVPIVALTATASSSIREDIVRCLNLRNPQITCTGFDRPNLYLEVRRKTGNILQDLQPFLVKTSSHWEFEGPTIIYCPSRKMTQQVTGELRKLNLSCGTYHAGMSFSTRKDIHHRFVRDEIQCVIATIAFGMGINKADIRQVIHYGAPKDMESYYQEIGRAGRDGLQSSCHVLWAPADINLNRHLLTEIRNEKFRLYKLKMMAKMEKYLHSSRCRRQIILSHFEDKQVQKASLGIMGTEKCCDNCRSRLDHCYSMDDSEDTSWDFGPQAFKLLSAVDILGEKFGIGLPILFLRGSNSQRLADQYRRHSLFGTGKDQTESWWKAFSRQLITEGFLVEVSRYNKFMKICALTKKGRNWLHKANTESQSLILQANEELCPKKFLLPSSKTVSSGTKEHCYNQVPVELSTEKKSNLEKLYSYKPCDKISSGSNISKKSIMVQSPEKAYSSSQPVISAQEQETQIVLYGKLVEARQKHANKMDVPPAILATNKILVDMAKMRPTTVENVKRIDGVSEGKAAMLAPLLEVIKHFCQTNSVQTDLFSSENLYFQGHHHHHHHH

Row | SMILES | IC50
1 | Cc1cccn1-c1ccc(CC(=O)N(Cc2cccnn2)C2C=CS(=O)(=O)C2)c(F)c1 (stereo not drawn) [I-224, N-(1,1-dioxo-2,3-dihydro-1lambda6-thiophen-3-yl)-2-[2-fluoro-4-(2-methyl-1H-pyrrol-1-yl)phenyl]-N-[(pyridazin-3-yl)methyl]acetamide] | 5 to 10 µM
2 | Cc1cccn1-c1ccc(CC(=O)N(Cc2ccnc(N(C)C)c2)C2C=CS(=O)(=O)C2)c(F)c1 (stereo not drawn) [I-96, N-{[2-(dimethylamino)pyridin-4-yl]methyl}-N-(1,1-dioxo-2,3-dihydro-1lambda6-thiophen-3-yl)-2-[2-fluoro-4-(2-methyl-1H-pyrrol-1-yl)phenyl]acetamide] | 0.5 to 5 µM
3 | O=C(Cn1ccc(-c2ccc(F)cc2)cc1=O)N(Cc1ccncc1)C1C=CS(=O)(=O)C1 (stereo not drawn) [I-147, N-(1,1-dioxido-2,3-dihydrothiophen-3-yl)-2-(4-(4-fluorophenyl)-2-oxopyridin-1(2H)-yl)-N-(pyridin-4-ylmethyl)acetamide] | 0.5 to 5 µM
4 | O=C(Cc1ccc(-c2ccccc2)cn1)N(Cc1ccccc1)C1C=CS(=O)(=O)C1 (stereo not drawn) [I-341, N-benzyl-N-(1,1-dioxo-2,3-dihydro-1lambda6-thiophen-3-yl)-2-(5-phenylpyridin-2-yl)acetamide] | 10 to 50 µM
5 | O=C(Cc1ccc(-n2cccc2)cc1)N(Cc1cccnc1)C1C=CS(=O)(=O)C1 (stereo not drawn) [I-358, N-(1,1-dioxo-2,3-dihydro-1lambda6-thiophen-3-yl)-N-[(pyridin-3-yl)methyl]-2-[4-(1H-pyrrol-1-yl)phenyl]acetamide] | 10 to 50 µM
6 | COc1cc(CN(C(=O)C2CNc3cc(-c4ccc(F)cc4)ccc32)C2C=CS(=O)(=O)C2)ccn1 (stereo not drawn) [I-121, N-(1,1-dioxo-2,3-dihydro-1lambda6-thiophen-3-yl)-6-(4-fluorophenyl)-N-[(2-methoxypyridin-4-yl)methyl]-2,3-dihydro-1H-indole-3-carboxamide] | 0.5 to 5 µM
7 | O=C(CCc1cc2ccccc2[nH]1)N(Cc1ccncc1)C1C=CS(=O)(=O)C1 (stereo not drawn) [I-396, N-(1,1-dioxo-2,3-dihydro-1lambda6-thiophen-3-yl)-3-(1H-indol-2-yl)-N-[(pyridin-4-yl)methyl]propanamide] | > 50 µM
8 | COc1cc(CN(C(=O)Cc2ccc(-n3ccccc3=O)cc2F)C2C=CS(=O)(=O)C2)ccn1 (stereo not drawn) [I-381, N-(1,1-dioxo-2,3-dihydro-1lambda6-thiophen-3-yl)-2-[2-fluoro-4-(2-oxo-1,2-dihydropyridin-1-yl)phenyl]-N-[(2-methoxypyridin-4-yl)methyl]acetamide] | > 50 µM
9 | COc1cc(CN(C(=O)Cc2ccc(-n3cccc3C)cn2)C2C=CS(=O)(=O)C2)ccn1 (stereo not drawn) [I-250, N-(1,1-dioxo-2,3-dihydro-1lambda6-thiophen-3-yl)-N-[(2-methoxypyridin-4-yl)methyl]-2-[5-(2-methyl-1H-pyrrol-1-yl)pyridin-2-yl]acetamide] | 5 to 10 µM
10 | Cc1cccn1-c1ccc(CC(=O)N(Cc2ccnc(C(C)(C)O)c2)C2C=CS(=O)(=O)C2)c(F)c1 (stereo not drawn) [I-66, N-(1,1-dioxo-2,3-dihydro-1lambda6-thiophen-3-yl)-2-[2-fluoro-4-(2-methyl-1H-pyrrol-1-yl)phenyl]-N-{[2-(2-hydroxypropan-2-yl)pyridin-4-yl]methyl}acetamide] | < 0.5 µM
11 | CC(C)(O)c1cc(CN(C(=O)Cn2ccc(-c3ccc(F)c(F)c3)cc2=O)[C@@H]2C=CS(=O)(=O)C2)ccn1 [I-13, (R)-2-(4-(3,4-difluorophenyl)-2-oxopyridin-1(2H)-yl)-N-(1,1-dioxido-2,3-dihydrothiophen-3-yl)-N-((2-(2-hydroxypropan-2-yl)pyridin-4-yl)methyl)acetamide] | < 0.5 µM
12 | COc1cc(CN(C(=O)Cc2ccc(C3CC3)cc2)C2C=CS(=O)(=O)C2)ccn1 (stereo not drawn) [I-162, 2-(4-cyclopropylphenyl)-N-(1,1-dioxo-2,3-dihydro-1lambda6-thiophen-3-yl)-N-[(2-methoxypyridin-4-yl)methyl]acetamide] | 0.5 to 5 µM
13 | O=C(Cc1ccc(-n2cccc2)cc1)N(Cc1ccccc1)C1C=CS(=O)(=O)C1 (stereo not drawn) [I-290, N-benzyl-N-(1,1-dioxo-2,3-dihydro-1lambda6-thiophen-3-yl)-2-[4-(1H-pyrrol-1-yl)phenyl]acetamide] | 5 to 10 µM
14 | O=C(Cc1ccc(-n2cccc2)cc1)N(Cc1cccc(F)c1F)C1C=CS(=O)(=O)C1 (stereo not drawn) [I-221, N-[(2,3-difluorophenyl)methyl]-N-(1,1-dioxo-2,3-dihydro-1lambda6-thiophen-3-yl)-2-[4-(1H-pyrrol-1-yl)phenyl]acetamide] | 0.5 to 5 µM
15 | COc1cc(CN(C(=O)C(C(=O)N(C)C)c2ccc(-c3ccc(F)cc3)cc2F)C2C=CS(=O)(=O)C2)ccn1 (single isomer, unassigned) [I-267, (2R**)-2-{3,4′-difluoro-[1,1′-biphenyl]-4-yl}-N-[(3R*)-1,1-dioxo-2,3-dihydro-1lambda6-thiophen-3-yl]-N-[(2-methoxypyridin-4-yl)methyl]-N′,N′-dimethylpropanediamide] | 10 to 50 µM
16 | CN(C)C(=O)C(C(=O)N(Cc1ccnc(C(C)(C)O)c1)C1C=CS(=O)(=O)C1)c1ccc(-c2ccc(F)cc2)cc1F (single isomer, unassigned) [I-340, (2R**)-2-{3,4′-difluoro-[1,1′-biphenyl]-4-yl}-N-[(3R*)-1,1-dioxo-2,3-dihydro-1lambda6-thiophen-3-yl]-N-{[2-(2-hydroxypropan-2-yl)pyridin-4-yl]methyl}-N′,N′-dimethylpropanediamide] | 10 to 50 µM

The next lines start with the values.

Row | IC50 | SMILES
17 | 10 to 50 µM | O=C(Cc1ccc(S(F)(F)(F)(F)F)cc1)N(CC1CC1)C1C=CS(=O)(=O)C1 (stereo not drawn) [I-608, N-(cyclopropylmethyl)-N-(1,1-dioxo-2,3-dihydro-1lambda6-thiophen-3-yl)-2-[4-(pentafluoro-lambda6-sulfanyl)phenyl]acetamide]
18 | > 50 µM | O=C(CC1COc2ccccc2C1)N(Cc1ccncc1)C1C=CS(=O)(=O)C1 (stereo not drawn) [I-613, 2-(3,4-dihydro-2H-1-benzopyran-3-yl)-N-(1,1-dioxo-2,3-dihydro-1lambda6-thiophen-3-yl)-N-[(pyridin-4-yl)methyl]acetamide]
19 | < 0.5 µM | CC(C)c1csc(CN(C(=O)Cc2ccc(S(F)(F)(F)(F)F)cc2)C2C=CS(=O)(=O)C2)n1 (stereo not drawn) [I-659, N-(1,1-dioxo-2,3-dihydro-1lambda6-thiophen-3-yl)-2-[4-(pentafluoro-lambda6-sulfanyl)phenyl]-N-{[4-(propan-2-yl)-1,3-thiazol-2-yl]methyl}acetamide]
20 | > 50 µM | O=C(Cc1ccc(-n2cccc2)cc1)N(C1C=CS(=O)(=O)C1)[C@H]1CCOc2ccccc21 (stereo partly drawn) [I-550, N-[(4S)-3,4-dihydro-2H-1-benzopyran-4-yl]-N-(1,1-dioxo-2,3-dihydro-1lambda6-thiophen-3-yl)-2-[4-(1H-pyrrol-1-yl)phenyl]acetamide]
21 | < 0.5 µM | COC(C(=O)N(Cc1nc(C(C)(C)O)cs1)C1C=CS(=O)(=O)C1)c1ccc(-c2ccc(F)c(F)c2)cc1F (single isomer, unassigned) [I-746, (2R*)-N-[(3R**)-1,1-dioxo-2,3-dihydro-1lambda6-thiophen-3-yl]-N-{[4-(2-hydroxypropan-2-yl)-1,3-thiazol-2-yl]methyl}-2-methoxy-2-{3,3′,4′-trifluoro-[1,1′-biphenyl]-4-yl}acetamide]
22 | 0.5 to 5 µM | O=C(Cn1cc(-c2ccc(F)cc2)cn1)N(Cc1ccnc(OC(F)(F)F)c1)C1C=CS(=O)(=O)C1 (stereo not drawn) [I-753, N-(1,1-dioxo-2,3-dihydro-1lambda6-thiophen-3-yl)-2-[4-(4-fluorophenyl)-1H-pyrazol-1-yl]-N-{[2-(trifluoromethoxy)pyridin-4-yl]methyl}acetamide]
23 | < 0.5 µM | CC(O)(c1cc(CN(C(=O)Cn2cc(-c3cc(F)c(F)c(F)c3)cn2)C2C=CS(=O)(=O)C2)ccn1)C1CC1 (stereo not drawn) [I-826, N-{[2-(1-cyclopropyl-1-hydroxyethyl)pyridin-4-yl]methyl}-N-(1,1-dioxo-2,3-dihydro-1lambda6-thiophen-3-yl)-2-[4-(3,4,5-trifluorophenyl)-1H-pyrazol-1-yl]acetamide]
24 | < 0.5 µM | O=C(Cc1ccc(S(F)(F)(F)(F)F)cc1)N(Cc1nc(-c2nn[nH]n2)cs1)C1C=CS(=O)(=O)C1 (stereo not drawn) [I-626, N-(1,1-dioxo-2,3-dihydro-1lambda6-thiophen-3-yl)-2-[4-(pentafluoro-lambda6-sulfanyl)phenyl]-N-{[4-(2H-1,2,3,4-tetrazol-5-yl)-1,3-thiazol-2-yl]methyl}acetamide]
25 | > 50 µM | O=C([C@@H]1[C@H]2C[C@]1(c1cccc(F)c1)CO2)N(Cc1ccncc1)C1C=CS(=O)(=O)C1 (mixture of isomers) [I-715, rac-(1R,4S,5S)-N-(1,1-dioxo-2,3-dihydro-1lambda6-thiophen-3-yl)-4-(3-fluorophenyl)-N-[(pyridin-4-yl)methyl]-2-oxabicyclo[2.1.1]hexane-5-carboxamide]
26 | 0.5 to 5 µM | COc1cc(CN(C(=O)C(OCC2CCN(S(C)(=O)=O)C2)c2ccc(-c3ccc(F)c(F)c3)cc2F)[C@@H]2C=CS(=O)(=O)C2)ccn1 (stereo partly drawn) [I-808, N-[(3R)-1,1-dioxo-2,3-dihydro-1lambda6-thiophen-3-yl]-2-[(1-methanesulfonylpyrrolidin-3-yl)methoxy]-N-[(2-methoxypyridin-4-yl)methyl]-2-{3,3′,4′-trifluoro-[1,1′-biphenyl]-4-yl}acetamide]
27 | > 50 µM | O=C(C1CCc2cc(Br)ccc2O1)N(Cc1ccncc1)C1C=CS(=O)(=O)C1 (stereo not drawn) [I-678, 6-bromo-N-(1,1-dioxo-2,3-dihydro-1lambda6-thiophen-3-yl)-N-[(pyridin-4-yl)methyl]-3,4-dihydro-2H-1-benzopyran-2-carboxamide]
